Assay results from patent US6596701B1, “S-adenosyl methionine regulation of metabolic pathways and its use in diagnosis and therapy” (MediQuest Therapeutics, Inc., priority 1995, dated 2003).
Read-outs that look alike come from different tables or passages of the source.

Key:
[1] = cited from earlier work
AD patients = conditions: Cohen et al. 1988; cited from earlier work
LDHκ = LDHκ activity in HeLa cell extracts with SAM added; type: biochemical, human; conditions: addition of SAM to the assay mixture
RSV-infected cells = conditions: cited from earlier work
injured skin = conditions: compared to injured skin of saline-treated controls, Smith et al. 1989; cited from earlier work
tumor [2] = conditions: Briggs 1959; tumor size attained prior to treatment was not reduced; cited from earlier work
puncture wounds = assay: Mouse puncture wound model, Experiment 3 (about 6 mm wounds, wound area, varied compositions); type: in vivo; conditions: comparison of Groups A-D, each compound 0.18 mg/ml
Experimental: This study was similar to Experiment 2, with the following changes. 1. […] 2. […] 3. Test or control compositions were applied daily. Compounds in each test composition were varied 4. N=10 mice per group 5. The each compound in the test compositions was present at a concentration of 0.18 mg/ml. [table]

[3] = tested on: genetically diabetic mice; conditions: Reddi et al. 1988; cited from earlier work
cultured rat hepatocytes = conditions: within 6 hours, cited from earlier work
3T3 cells = conditions: cited from earlier work
[4] = tested on: RNA polymerase II and synthesis of RNA; conditions: biotin-deficient rats, within 2 hours after injection of biotin; cited from earlier work
tumor [5] = conditions: mouse model, cited from earlier work
tRNA in tumor cells = conditions: tumor-bearing mice; cited from earlier work
[6] = tested on: gastric mucosal stress ulcers; conditions: polyamine-stimulated healing, Wang et al.; cited from earlier work
SAM concentrations = conditions: Bacchi et al. 1987; cited from earlier work
[7] = biological target: methyl transferase which acts on MBP; conditions: methyl transferase with subunits of 75 and 100 kDa; cited from earlier work

Which “stable for” value ([1]; 4° C.) does the source give for `C[S+](CC[C@H](N)C(=O)O)C[C@H]1O[C@@H](n2cnc3c(N)ncnc32)[C@H](O)[C@@H]1O.C[S+](CC[C@H](N)C(=O)O)C[C@H]1O[C@@H](n2cnc3c(N)ncnc32)[C@H](O)[C@@H]1O.O=S(=O)([O-])[O-]` (stereo partly drawn) [SAM sulfate] here?
Its value is 6 months.

Which results are given for `C[S+](CC[C@H](N)C(=O)O)C[C@H]1O[C@@H](n2cnc3c(N)ncnc32)[C@H](O)[C@@H]1O` (stereo partly drawn) [SAM, S-adenosyl-L-methionine]?
membrane fluidity (AD patients): increased of membrane fluidity; symptoms (AD patients): no improvement nor worsening of symptoms; increase in activity of LDHκ (LDHκ): 8-10 fold

What does the source list for `NC1(C(=O)O)CCCC1` [cycloleucine]?
inhibition of cellular methylation (RSV-infected cells; RSV-infected cells, concentrations used): 95%; RSV-specific mRNAs found (RSV-infected cells; concentrations which inhibit 95% of cellular methylation): only the 35S viral mRNA is found

For `NC(=O)c1cccnc1` [nicotinamide], which “capillary density in injured skin” value (injured skin) is on record?
The value was “increases the capillary density in injured skin significantly”.

With `C[C@@H]1NC(=O)N[C@@H]1CCCCCC(=O)O` [desthiobiotin, reference compound] as the compound, how does the antitumor effects (tumor [2]) read?
The antitumor effects was “further tumor growth was prevented”.

Which results are given for `O=C(O)CCCC[C@@H]1SC[C@@H]2NC(=O)N[C@@H]21` [biotin]?
synergy in promoting wound healing (puncture wounds): act synergistically in promoting wound healing; glucose and insulin tolerance [3]: improves glucose and insulin tolerance; increase in glucokinase (cultured rat hepatocytes; required the presence of insulin): 4 fold; increase in cGMP (cultured rat hepatocytes): 3 fold; GAPDH increased (3T3 cells; differentiation with biotin): 8 fold; aldolase increased (3T3 cells; differentiation with biotin): 20-30 fold; glycerophosphate dehydrogenase increased (3T3 cells; differentiation with biotin): 2,000 fold; actin, % of total protein after treatment (3T3 cells; from 12.7% prior to treatment with biotin): 3.2 % of total protein; increase in RNA polymerase II [4]: 2 fold; increase in the synthesis of RNA [4]: 2 fold

Which effect on tumor (tumor [5]; Katze et al. 1980) does the source give for `Nc1nc2[nH]cc(CN[C@H]3C=C[C@H](O)[C@@H]3O)c2c(=O)[nH]1` [queuine] here?
Its effect on tumor is “shrinkage of the tumor”.

And the effect on tumor (tumor [5]; Nishimura et al. 1983, cancer of different type)?
The effect on tumor was “no effect”.

For `NC1(C(=O)O)CC1` [ACC, 1-aminocyclopropanecarboxylic acid], which “synergy in promoting wound healing” value (puncture wounds) is on record?
The value was “act synergistically in promoting wound healing”.

For `Nc1nc2c(c(CN[C@H]3C=C[C@H](O)[C@@H]3O)cn2[C@@H]2O[C@H](CO)[C@@H](O)[C@H]2O)c(=O)[nH]1` [queuosine], which “conversion of G-tRNA to QtRNA in tumor cells” value (tRNA in tumor cells) is on record?
The value was “complete conversion”.

For `NCCCC(N)(C(=O)O)C(F)F` (racemic) [DL-α-difluoromethylornithine], which “healing process of gastric mucosal stress ulcers” value [6] is on record?
Its value is “significantly inhibited”.

What about the “increase SAM concentrations” value (SAM concentrations) of the same compound?
Its value is ≤ 48 fold.

With `C[S+](CC[C@H](N)C(=O)O)C[C@H]1O[C@@H](n2cnc3c(N)ncnc32)[C@H](O)[C@@H]1O.[Cl-]` (stereo partly drawn) [chloride salt of SAM] as the compound, how does the “loss of activity per day” value ([1]; 25° C.) read?
Its value is 10 % of activity per day.

With “avidin: the biotin-binding protein avidin” as the compound, how does the antitumor effects (tumor [2]) read?
Its antitumor effects is “further tumor growth was prevented”.

With `Nc1ncnc2c1ncn2[C@@H]1O[C@H](CSCC[C@H](N)C(=O)O)[C@@H](O)[C@H]1O` [SAH, S-adenosyl-L-homocysteine] as the compound, how does the Ki [7] read?
Its Ki is 1000 nM.
